Where only a bound is given, the exact number is not on record here.

The target in the assay is Neprilysin (Homo sapiens, UniProt P08473). Put plainly: Enzyme NEP Inhibition Assay.
Method: The assays were performed in 384-well white opaque plates at 37° C. using the fluorogenic peptide substrates at a concentration of 10 μM in Assay Buffer (NEP: 50 mM HEPES, pH 7.5, 100 mM NaCl, 0.01% polyethylene glycol sorbitan monolaurate (Tween-20), 10 μM ZnSO4; ACE: 50 mM HEPES, pH 7.5, 100 mM NaCl, 0.01% Tween-20, 1 μM ZnSO4). […] Test compounds were added to the enzymes and incubated for 30 minute at 37° C. prior to initiating the reaction by the addition of substrate.
As to `C[C@H](C[C@@H](Cc1ccc(-c2ccccc2)cc1)NC(=O)CCCC(=O)O)C(=O)O` [US10123984, Compound 21e], 90 nM corresponded to half-maximal inhibition (IC50). Same read-out and setting: as for `C[C@H](C[C@@H](Cc1ccc(-c2ccccc2)cc1)NC(=O)CCCCC(=O)O)C(=O)O` [US10123984, Compound 21f], the figure is 324 nM; as for `C[C@H](CC(Cc1ccc(-c2ccccc2)cc1)NC(=O)CC(=O)O)C(=O)O` (some centres undefined) [US10123984, Compound 21g], 92 nM.

In turn, `O=C(O)C(=O)N[C@H](Cc1ccc(-c2cccc(Cl)c2)cc1)C[C@@H](O)C(=O)O` [US10123984, Example 2A] had an inhibitory constant (Ki) of under 1 nM. Molecule `CCOC(=O)C(=O)N[C@H](Cc1ccc(-c2cccc(Cl)c2)cc1)C[C@@H](O)C(=O)O` [US10123984, Example 2F] gave a Ki of under 1 nM. `CC(C)COC(=O)C(=O)N[C@H](Cc1ccc(-c2cccc(Cl)c2)cc1)C[C@@H](O)C(=O)O` [US10123984, Example 2H] gave a Ki of under 1 nM. In the case of `COCCOC(=O)C(=O)N[C@H](Cc1ccc(-c2cccc(Cl)c2)cc1)C[C@@H](O)C(=O)O` [US10123984, Example 2T], the inhibition constant Ki was under 1 nM. On the same count and under the same terms, as for `O=C(N[C@H](Cc1ccc(-c2cccc(Cl)c2)cc1)C[C@@H](O)C(=O)O)C(=O)OCCOc1ccccc1` [US10123984, Example 2U], the figure is under 1 nM; as for `CCOCCCOC(=O)C(=O)N[C@H](Cc1ccc(-c2cccc(Cl)c2)cc1)C[C@@H](O)C(=O)O` [US10123984, Example 2V], under 1 nM.

Source of the values: BindingDB's records for patent US10123984 (Theravance Biopharma R&D Ip, 2018).
